Measured values taken from article PMC7738880, “Identification of novel CD44v6-binding peptides that block CD44v6 and deliver a pro-apoptotic peptide to tumors to inhibit tumor growth and metastasis in mice” (Theranostics, 2021).
Residues, ends and D or L forms follow the SMILES beside them.

What was measured:
MCF7 cells = assay: Saturation cell binding assay, MCF7; parameters: species or system human; conditions: biotin-labeled peptide 0-256 µM, 4 °C, 1 h, CD44v6-low cells
Experimental: (§1) Supplementary Information
(§2) Supplementary Materials and Methods
(§3) Saturation binding assays to determine the cellular binding affinities of peptides Cells (5 × 10^3 cells per well in a 96-well plate) were incubated with 1% bovine serum albumin (BSA) for 30 min and with different concentrations of biotin-labeled peptides (0, 2, 4, 8, 16, 32, 64, 128, and 256 µM) at 4 °C for 1 h. After washing, the cells were incubated with horseradish peroxidase-conjugated neutravidin (1:10,000 dilution; ThermoFisher Scientific, Waltham, MA) for 30 min at room temperature. Enzymatic activity was detected using a 3,3ʹ,5,5ʹ-tetramethylbenzidine substrate (ThermoFisher Scientific), and the reaction was stopped using 2 M sulfuric acid. The absorbance at 450 nm was measured in each well using a microplate reader (Tecan, Mannedorf, Switzerland). The KD values were then calculated using GraphPad Prism 6 software (GraphPad Inc., La Jolla, CA). […]
(§4) 10 µM biotin-labeled CD44v6-binding peptides at 4 °C for 1 h. […]
(§5) Scientific) for 30 min at room temperature. […]

4T1 cells = assay: Saturation cell binding assay, 4T1; parameters: species or system mouse; conditions: biotin-labeled peptide 0-256 µM, 4 °C, 1 h
Experimental: as §1, §2, §3, §4, §5

[1] = test system: c-Met and Erk phosphorylation in 4T1 cells; assay: Western blotting of HGF-induced c-Met and Erk phosphorylation, 4T1; format: cell-based, mouse; conditions: peptide pre-treatment 10 min, HGF 25 ng/mL 10 min
Experimental: (§6) To examine c-Met and Erk phosphorylation, MDA-MB231 cells were serum-starved for 24 h, pre-treated with CD44v6-binding peptides (20 µM) for 10 min, and incubated with 25 ng/mL HGF for 10 min. After the incubation, the cell lysates were subjected to Western blotting analyses using an anti-phospho-Met rabbit monoclonal antibody (clone no. D26; Cell Signaling Technology), anti-Met mouse monoclonal antibody (clone no. 25H2, 1:1000 dilution; Cell Signaling Technology), anti-phospho-Erk1/2 rabbit monoclonal antibody (clone no. 197G2; Cell Signaling Technology), and anti-ERK1 rabbit polyclonal antibody (1:1000 dilution; Santa Cruz Biotechnology). The labeled bands on immunoblots were detected using enhanced chemiluminescence reagents (ThermoFisher Scientific).
Supplementary Figure S3. NLN and NEW inhibit HGF-induced c-Met phosphorylation and cell migration and invasion in 4T1 breast tumor cells. (A) Western blotting analysis of c-Met and Erk phosphorylation in 4T1 cells pretreated or not with 5 μg/mL NLN and NEW for 10 min and treated with 25 ng/mL HGF for 10 min. (B) The quantification of c-Met and Erk […]
(1 picture or pasted object on this page, not shown here)

4T1-luc cells = assay: 4T1-luc orthotopic spontaneous metastasis model; format: in vivo; conditions: for tumor growth, lung metastasis, survival rate and TUNEL-stained apoptosis, peptide combined with crizotinib 12.5 mg/kg: peptide 14.2 mg/kg i.v. plus crizotinib 12.5 mg/kg oral, versus crizotinib alone 25 mg/kg; for primary tumor growth, lung metastasis and survival, peptide combined with crizotinib 25 mg/kg: peptide 14.2 mg/kg i.v. plus crizotinib 25 mg/kg oral, versus single treatment; for luminescence signals and total photon flux from the whole body: n = 6/group; for number of lung tumor nodules: relative to saline and control peptide; for hematologic parameters and liver and kidney functional marker levels: peptide alone or in combination with crizotinib, compared with control peptide, n = 3/group
Experimental: 4T1-luc cells (1 × 10^6 cells) were orthotopically inoculated into the mammary fat pads in 6-week-old female BALB/c mice. Panc-1 cells (1 × 10^6 cells) were subcutaneously inoculated into lower right flank in 6-week-old female BALB/c nude mice To monitor 4T1-luc tumor growth, mice were intraperitoneally injected with D-luciferin (150 mg/kg body weight), incubated for 10 min, and subjected to a whole-body bioluminescence imaging using the IVIS imaging system (Perkin Elmer). At two weeks after the inoculation, mice were randomly sorted into groups based on the luminescence intensity (4T1-luc) or tumor size (Panc-1). CD44v6-binding peptides were administered intravenously to 4T1 tumor-bearing mice (n = 6 per group) through the tail vein (14.2 mg/kg body weight, thrice weekly for three weeks) alone or in combination with crizotinib. Crizotinib in 5% DMSO was administered orally (12.5 and 25 mg/kg body weight, twice weekly for three weeks). CD44v6-targeted pro-apoptotic peptides or CD44v6-binding peptides and pro-apoptotic peptide in combination were intravenously administered to 4T1 or Panc-1 tumor-bearing mice (n = 10 per group) through the tail vein (10 mg/kg body weight, thrice weekly for 3 weeks). Primary tumor growth was monitored by measuring tumor volumes using a caliper and total photon flux in the whole body using the IVIS imaging system. The body weights and tumor ulceration were monitored throughout the treatment period. At the end of the treatments, half of the mice were used for the collection of blood, sacrificed, and the primary tumor weights and numbers of metastatic tumor nodules in the isolated lungs were determined. The remaining mice were maintained until death to determine the survival rates. The hematological parameters and liver and kidney function markers in plasma and serum samples were analyzed as described above. The normal ranges of hematological parameters of the BALB/c mouse and BALB/c nude mouse were obtained from Charles River Laboratories website (www.criver.com).

[2] = molecular target: T1, CD44v6 on MDA-MB231 cells (Homo sapiens, UniProt P16070); assay: Flow cytometric competition assays with anti-CD44v6 antibody; format: cell-based; conditions: for peptide binding to cells after pre-treatment with anti-CD44v6 antibody: MDA-MB231, antibody 5 µg/mL 1 h, FITC-labeled peptide 10 µM; for staining of CD44v6 with anti-CD44v6 antibody after pre-treatment with peptide: MDA-MB231, peptide 50 µM 1 h
T1 sequence (P16070 386-428 limits assumed): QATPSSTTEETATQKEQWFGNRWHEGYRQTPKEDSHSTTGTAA
Experimental: Cells (1 × 10^5 cells) were harvested and suspended in culture medium containing 1% BSA for 1 h, followed by an incubation with FITC-labeled peptides (25 µM) at 4 °C for 1 h. After washing, the cells were analyzed using a FACSCalibur flow cytometer (BD, Franklin Lakes, NJ). For competition assays, cells were incubated with 5 µg/mL of an anti-human CD44v6 mouse monoclonal antibody (clone no. VFF-18, 1:100 dilution; Abcam, Cambridge, MA) and anti-human CD44 monoclonal antibody (clone no. 156-3C11, 1:100 dilution; ThermoFisher Scientific) for 1 h to compete with peptide binding, followed by an incubation with FITC-labeled peptides (10 µM) before analysis on a flow cytometer (BD). In another set of assays, cells were incubated with peptides (50 µM) for 1 h to compete with antibody binding, followed by an incubation with 5 µg/mL of the anti-human CD44v6 mouse monoclonal antibody for 1 h, The cells were then incubated with an Alexa Fluor 488-labeled goat anti-mouse IgG secondary antibody (Merck) before analysis on a flow cytometer (BD).

[3] = test system: c-Met and Erk phosphorylation in MDA-MB231 cells; assay: Western blotting of HGF-induced c-Met and Erk phosphorylation, MDA-MB231; format: cell-based, human; conditions: peptide 20 µM 10 min, HGF 25 ng/mL 10 min
Experimental: as §6

[4] = peptide 14.2 mg/kg i.v. thrice weekly for three weeks

Structure (SMILES) | Kd (MCF7 cells) [µM] | Kd (4T1 cells) [µM] | HGF-induced phosphorylation of c-Met and Erk, 4T1 [1] | tumor growth, lung metastasis, survival rate and TUNEL-stained apoptosis, peptide combined with crizotinib 12.5 mg/kg (4T1-luc cells) | primary tumor growth, lung metastasis and survival, peptide combined with crizotinib 25 mg/kg (4T1-luc cells) | body weight (4T1-luc cells; [4]) | survival rate (4T1-luc cells; [4]) | volumes of primary tumors (4T1-luc cells; [4]) | weights of isolated primary tumors (4T1-luc cells; [4]) | luminescence signals and total photon flux from the whole body (4T1-luc cells; [4]) | number of lung tumor nodules (4T1-luc cells; [4]) | hematologic parameters and liver and kidney functional marker levels (4T1-luc cells) | peptide binding to cells after pre-treatment with anti-CD44v6 antibody [2] | staining of CD44v6 with anti-CD44v6 antibody after pre-treatment with peptide [2] | HGF-induced phosphorylation of c-Met and Erk, MDA-MB231 [3] | monocyte population (4T1-luc cells; [4])
CC(C)C[C@H](NC(=O)[C@H](CCC(N)=O)NC(=O)[C@H](Cc1c[nH]c2ccccc12)NC(=O)[C@H](CCC(=O)O)NC(=O)[C@H](CC(N)=O)NC(=O)[C@@H](N)CS)C(=O)N[C@@H](CCCCN)C(=O)N[C@@H](CO)C(=O)N[C@@H](CS)C(=O)O [NEW] (H-CNEWQLKSC-OH; N-terminus and C-terminus assumed) | 122 ± 115 | 29 ± 16 | inhibited | more efficiently than crizotinib alone | more efficiently than a single treatment | little effect | increased | decreased | decreased | decreased | reduced number | not significantly changed or remained within normal ranges | significantly inhibited | inhibited | inhibited | 
CC[C@H](C)[C@H](NC(=O)[C@@H](NC(=O)[C@H](CC(N)=O)NC(=O)[C@H](CC(C)C)NC(=O)[C@H](CC(N)=O)NC(=O)[C@@H](N)CS)[C@@H](C)O)C(=O)N[C@@H](CC(=O)O)C(=O)N[C@H](C(=O)N[C@@H](CS)C(=O)O)[C@@H](C)O [NLN] (H-CNLNTIDTC-OH; N-terminus and C-terminus assumed) | 300 ± 250 | 17 ± 7 | inhibited | more efficiently than crizotinib alone | more efficiently than a single treatment | little effect | increased | decreased | decreased | decreased | reduced number | not significantly changed or remained within normal ranges | significantly inhibited | inhibited | inhibited | decreased below the normal ranges
